Earlier results on two compounds are cited in patent publication US9717712B2, “Combinations comprising tricyclohexadecahexaene derivatives for use in the treatment of hepatitis C virus” (BRISTOL-MYERS SQUIBB COMPANY, priority 2013, dated 2017).

The term EC50 denotes the concentration needed to bring the measured effect to its halfway point.

Like-named read-outs stand apart in the source and are kept apart here.

For this data set, the system named is HCV genotype 1a variant with glutamine 30 changed to glutamate in the NS5A protein (Q30E). The conditions noted are these: genotype 1a Q30E replicon. (In general: Replicon systems follow genome replication, usually without infectious particles.)
Where [1] appears, read: single agent, read-out: EC50, compound titrated singly.

For `CC(C)CC(=O)N[C@H](c1ncc(-c2ccc(-c3ccc(-c4cnc([C@@H](NC(=O)CC(C)C)C(C)C)[nH]4)cc3)cc2)[nH]1)C(C)C` [Compound P-55], the EC50 reads like this: (BMS-790052 fixed at 200 nM, read-out: EC50 of P-55 in the presence of a fixed amount of BMS-790052) roughly 2 nM; under setting [1], greater than 200 nM. Besides, where the note is “P-55 titrated with BMS-790052 fixed at 200 nM”, the “synergistic inhibitory effect for the combination” value is on record as greater than 100 fold.
For `COC(=O)N[C@H](C(=O)N1CCC[C@H]1c1nc(-c2ccc(-c3ccc(-c4c[nH]c([C@@H]5CCCN5C(=O)[C@@H](NC(=O)OC)C(C)C)n4)cc3)cc2)c[nH]1)C(C)C` [BMS-790052], the “reciprocal synergistic inhibitory effect for the combination” value (BMS-790052 titrated with P-55 fixed at 200 nM) is on record as roughly 100 fold. The EC50 is, setting by setting: (P-55 fixed at 200 nM, read-out: EC50 of BMS-790052 in the presence of a fixed amount of P-55) roughly 2 nM; under setting [1], roughly 200 nM.
